System: SHRs (Spontaneously Hypertensive Rats)
Assay: Systolic blood pressure of spontaneously hypertensive rats by Tail-Cuff method after administration in drinking water
Type: in vivo, rat
Description: In this case, losartan (an angiotensin-receptor antagonist), enalapril (an angiotensin-converting enzyme inhibitor), amlodipine (a calcium channel blocker), and diltiazem (a calcium channel blocker) were used as representative examples of the antihypertensive agent (b). Twelve-week-old male SHRs (Spontaneously Hypertensive Rats) were used for experiment after subjecting them to quarantine for 1 week or more. At 15 or 16 weeks old, the SHRs were trained for blood pressure measurement with a Tail-Cuff method sphygmomanometer (BP-2000, Visitech systems, Napa Place, N.C., USA) for 1 to 2 weeks. After completing the training, they underwent blood pressure measurement at 17 to 18 weeks old. The animals were divided into 4 groups (10 for each) by taking care not to cause a bias in the systolic blood pressure, and the drug administration was started. Tap water was administered to a first group as a control group. A solution of each test material dissolved in tap water was administered to second to fourth groups. That is, febuxostat was administered to the second group, each antihypertensive agent of losartan, enalapril, amlodipine or diltiazem to the third group, and the mixture of febuxostat and the antihypertensive agents administered to the third group as combined administration to the fourth group. The dose of each agent was calculated from the concentration in the solution, the amount of drinking water, and the weight of the rats. After administration was carried out for 2 to 6 weeks, the value of their systolic blood pressure were measured by Tail-Cuff method.

[1] = male SHR, 42nd day after administration, each agent 3 mg/kg/day in tap water, alone or combined, Table 2 study (tap water group 226 ± 4)
[2] = male SHR, before administration (baseline of the group), Table 2 study, each agent 3 mg/kg/day
[3] = male SHR, 14th day after administration, each agent 3 mg/kg/day in tap water, alone or combined, Table 1 study (tap water group 233 ± 4)
[4] = male SHR, before administration (baseline of the group), Table 1 study, each agent 3 mg/kg/day
[5] = male SHR, before administration (baseline of the group), Table 3 study, each agent 3 mg/kg/day

Row | Structure (SMILES) | systolic blood pressure (mean value±standard error) [1] [mmHg] | systolic blood pressure (mean value±standard error) [2] [mmHg] | systolic blood pressure (mean value±standard error) [3] [mmHg] | systolic blood pressure (mean value±standard error) [4] [mmHg] | systolic blood pressure (mean value±standard error) [5] [mmHg] | other results
1 | CCOC(=O)[C@H](CCc1ccccc1)N[C@@H](C)C(=O)N1CCC[C@H]1C(=O)O [enalapril] | 220 ± 5 | 232 ± 5 |  |  |  | 
2 | COc1ccc([C@@H]2Sc3ccccc3N(CCN(C)C)C(=O)[C@@H]2OC(C)=O)cc1 [diltiazem] |  |  |  |  |  | systolic blood pressure (mean value±standard error) (male SHR, 42nd day after administration, diltiazem 100 mg/kg/day in tap water, Table 4 study (tap water group 233 ± 3)): 231 ± 4 mmHg; systolic blood pressure (mean value±standard error) (male SHR, before administration (baseline of the group), Table 4 study, diltiazem 100 mg/kg/day): 229 ± 4 mmHg
3 | CCCCc1nc(Cl)c(CO)n1Cc1ccc(-c2ccccc2-c2nn[nH]n2)cc1 [losartan] |  |  | 215 ± 2 | 232 ± 4 |  | 
4 | Cc1nc(-c2ccc(OCC(C)C)c(C#N)c2)sc1C(=O)O [febuxostat, 2-(3-cyano-4-isobutyloxyphenyl)-4-methyl-5-thiazolecarboxylic acid] | 213 ± 5 | 230 ± 3 | 219 ± 4 | 230 ± 4 | 228 ± 4 | systolic blood pressure (mean value±standard error) (male SHR, 14th day after administration, each agent 3 mg/kg/day in tap water, alone or combined, Table 3 study (tap water group 229 ± 3)): 215 ± 4 mmHg; systolic blood pressure (mean value±standard error) (male SHR, 42nd day after administration, febuxostat 3 mg/kg/day in tap water, Table 4 study (tap water group 233 ± 3)): 227 ± 4 mmHg; antihypertensive action (result in words) (male SHR, administration for 2 to 6 weeks in drinking water): antihypertensive action; systolic blood pressure (mean value±standard error) (male SHR, before administration (baseline of the group), Table 4 study, febuxostat 3 mg/kg/day): 230 ± 5 mmHg
5 | CCOC(=O)C1=C(COCCN)NC(C)=C(C(=O)OC)C1c1ccccc1Cl (centres unmarked) [amlodipine] |  |  |  |  | 228 ± 3 | systolic blood pressure (mean value±standard error) (rat, in vivo): 219 ± 3 mmHg

Reference: patent publication US9545445B2, “Therapeutic drug for hypertension or prehypertension” (Teijin Pharma Limited, priority 2009, dated 2017)
